Experimental data: patent publication US20030185792A1, “Morphogen analogs of bone morphogenic proteins” (Curis, Inc., priority 1996, published 2003)
“Also recorded” adds a separate entry of the source. Values belong to the molecule of their own block, whether it stands above or below them. Bridge positions count the residues as written; N and C are the ends. Ends that are not written are not given here.

Columns and labels:
ROS cells = assay: ROS cell based alkaline phosphatase bioassay; design: species or system rat; conditions: for effect on OP-1 induced cell responsiveness (agonist/antagonist behaviour): peptide together with OP-1; for IC50: peptide together with OP-1 (1.33 nM), read-out: peptide concentration giving 50% inhibition of cellular responsiveness to OP-1; for effect on basal cell responsiveness (alkaline phosphatase activity): no OP-1
Description: In a first series of experiments, increasing concentrations of peptides F2-2 (FIG. 9A), F2-3 (FIG. 9B), Hn-2 (FIG. 9C) and Hc-2 (FIG. 9D) were added to ROS cells either alone (open bars) or in combination with 40 ng/ml soluble OP-1 (filled bars) and their effect on alkaline phosphatase activity measured. Soluble OP-1 is the form of OP-1 in which the pro-domain is still attached to the mature portion of OP-1 (see WO 94/03600). A basal alkaline phosphatase activity is shown by the line and represents the alkaline phosphatase activity of cells incubated in the absence of both soluble OP-1 and peptide.
(§1) Assay of peptides: The receptor-binding activities of OP-1 synthetic peptides were determined by a radio-ligand receptor assay using ^125I-labeled OP-1 as ligand, and an OP-1 receptor-enriched plasma membrane fraction of ROS cells. The assay is based on competition between radiolabeled OP-1 and unlabeled OP-1 or peptide for binding to membrane-bound receptor. A well characterized ROS cell based in vitro bio-assay was used to examine the effects of OP-1 peptides on basal as well as OP-1 induced cellular alkaline phosphatase activity.
i. ROS Cell Based Alkaline Phosphatase Assay: OP-1 synthetic peptides that bind OP-1 receptors are further analyzed by in vitro bioassay. This allows defining the role of OP-1 peptides at the receptor-binding site. Some of the OP-1 peptides that effectively interact with receptors could inhibit OP-1 induced target cell responsiveness, thereby acting as functional antagonists. Alternatively, they may mimic OP-1 functions inducing alkaline phosphatase activity in ROS cells. Creative BioMolecules has developed and fully validated ROS cell in vitro assay for OP-1. An assay procedure as described earlier is essentially followed to determine the biological activities of OP-1 peptides. In a typical experiment, rat Osteosarcoma (17/2.8) cells are plated in 96 well plates (3.0×10^4 cells/well) and incubated overnight at 37° C. in 5-6% CO2 incubator. Next day, the plates are examined to make sure that cells are healthy & confluent. Cells are treated with increasing concentrations of OP-1 standard (1-10,000 ng/ml) or OP-1 synthetic peptides (0.02-200 μM) alone or with OP-1 standard prepared in medium containing 1% FBS and incubated for 2 days at 37° C. in 5-6% CO2 incubator. The cellular content of alkaline phosphatase activity is determined by the method of Reddi and Huggins. Enzyme estimations are routinely carried out in 96 well plates. Following removal of culture medium, cells are washed with pre-warmed PBS (150 μl) and further incubated in 100 ul of pre-warmed 1% Triton X-100 for 30 minutes at 37 C. Plates are centrifuged for 10 minutes at full speed, and recovered samples (each 15 μl) are assayed for enzyme activity by adding 90 ul p-nitrophenyl phosphate (Sigma) as a substrate in 0.05 M glycine-NaOH buffer, pH 9.3 and incubating for 20 minutes at 37° C. The reaction is stopped by adding 75 μl of 0.2 N NaOH/well and absorbance at 405/490 nm is measured on a Dynatech MR 700 plate reader. Results are expressed as concentration of peptide inhibitor (with antagonist activity) required to give 50% inhibition of maximum response to OP-1 standard. On the other hand, the activities of peptides that stimulate cell responsiveness (with agonist activity) are expressed relative to OP-1 standard. FIG. 23 illustrates the dose-related effects of OP-1 preparations on stimulation of alkaline phosphatase activity as determined in ROS cell based in vitro assay.

[1] = test system: OP-1 receptor-enriched plasma membrane fraction of ROS cells; assay: Radioligand receptor assay: displacement of 125I-labeled OP-1 from ROS cell plasma membranes; assay type: binding, rat; conditions: for effect on binding of 125I-labeled OP-1 to the receptor: Example 3; for ability to displace 125I-labeled soluble OP-1 from ROS cell membranes: Example 2, FIGS. 10A and 10B
Description: In a second series of experiments, the ability of unlabeled soluble OP-1 and unlabeled peptides F1-2, F2-2, F2-3, H-n2 and H-c2 to displace ^125I labeled soluble OP-1 from ROS cell membranes was measured. The activities of peptides F2-2 and F2-3 relative to soluble OP-1 are shown in FIG. 10A, and the activities of peptides Fi-2, H-n2 and H-c2 relative to soluble OP-1 are shown in FIG. 10B. OP-1 receptor-enriched plasma membranes of ROS cells were incubated for 20 hrs at 4° C. with ^125I-labeled soluble OP-1 and unlabeled peptide. Receptor bound material was separated from unbound material by centrifugation at 39,500×g. The resulting pellet was harvested and washed with 50 mM HEPES buffer, pH 7.4 containing 5 mM MgCl2 and 1 mM CaCl2 Radioactivity remaining in the pellet was determined by means of a gamma counter.
as §1
i. Radio-receptor Assay: The receptor-binding activities of various OP-1 synthetic peptides can be determined by an equilibrium displacement binding isotherm assay using ^125I-labeled OP-1 as ligand and OP-1 receptor-enriched plasma membrane fraction of ROS cells. Highly purified OP-1 can be radioiodinated to a specific activity of 70-78 μCi/ug by a modified procedure of lactoperoxidase method. The percent bindability of radioiodinated OP-1 to excess receptor is 30-37%. Plasma membranes enriched with OP-1 receptors from ROS cells can be isolated as is known in the art. […] In a typical assay, fixed amounts of ^125I-labeled sol. OP-1 (˜80,000 cpm) are incubated with fixed amount of receptor-enriched plasma membrane fraction in the presence (5 μg, for non-specific binding) or absence of excess unlabeled OP-1 (for total binding). Displacement curves are generated with increasing concentrations of OP-1 peptide (0.032-50 μM) or OP-1 standard preparation (5-2000 ng). The assay incubations are carried out in a reaction volume of 300 μl with shaking for 22 hrs. at 4° C. Separation of bound and free ^125I-labeled OP-1 is by centrifugation (39,500×g, 30 minutes). The supernatants are aspirated and pellets are washed before counting in a gamma counter (Packard Instr., Downers Grove, Ill.). The concentration of OP-1 peptide required to give 50% inhibition of total specific binding of ^125I-labeled OP-1 (ED50) is calculated from competitive data.

[2] = biological target: OP-1 receptor of ROS cells (OP-1 receptor-enriched plasma membrane fraction of ROS cells) (rat); assay: binding of ^125I-OP-1 to excess receptor (ROS cell plasma membranes)
[3] = biological target: OP-1 receptor of ROS cells (OP-1 receptor-enriched plasma membrane fraction of ROS cells) (rat); assay: equilibrium binding of ^125I-OP-1 to OP-1 receptor-enriched ROS cell plasma membranes
[4] = biological target: OP-1 receptor of ROS cells (OP-1 receptor-enriched plasma membrane fraction of ROS cells) (rat)

Molecule: F1-1: SEQ ID No. 5; cyclized peptide covering the complete finger 1 region of OP-1 (CELYVSFRDLGWQDWIIAPEGYAAYC; cyclized; listed as Homo sapiens)
peptide concentrations effective to inhibit basal cellular responsiveness (ROS cells; Example 3, peptide alone): 52 to 260 µM
effect on OP-1 induced cell responsiveness (agonist/antagonist behaviour) (ROS cells; Example 3): antagonists
IC50 (ROS cells; Example 3): 20 µM
effect on binding of 125I-labeled OP-1 to the receptor [1]: interfered

Molecule: F2-1: SEQ ID No. 16; covers the entire finger 2 region of OP-1, cyclized close to the knot region (CLNAISVLYFDDSSNVILKKYRNMVVRC; disulfide 1-28 (inferred); listed as Homo sapiens)
effect on basal cell responsiveness (alkaline phosphatase activity) (ROS cells; Example 3, peptide alone): effectively inhibited
effect on OP-1 induced cell responsiveness (agonist/antagonist behaviour) (ROS cells; Example 3): effectively inhibited
IC50 (ROS cells; Example 3): 8 µM

Molecule: F2-2: SEQ ID No. 17; 9 residues at the tip of finger 2 including 2 Asp residues, ends cyclized (CYFDDSSNVIC; cyclized; listed as Homo sapiens)
behaviour in the alkaline phosphatase assay (agonist/antagonist) (ROS cells; Example 2, alone or with 40 ng/ml soluble OP-1): weak OP-1 agonists
effect on responsiveness to OP-1 (ROS cells; Example 3, at higher peptide concentrations (above 0.6-60 μM)): inhibited the responsiveness to OP-1
potentiation of OP-1 induced cell responsiveness (ROS cells; Example 3, peptide 0.6-60 μM, FIG. 16): 20%
effect on OP-1 induced cell responsiveness (agonist/antagonist behaviour) (ROS cells; Example 3): weak agonist; also recorded: potentiating the cell responsiveness to OP-1
peptide concentrations at which OP-1 induced responsiveness is potentiated (ROS cells; Example 3, with OP-1): 0.6 to 60 µM
increase of alkaline phosphatase activity relative to soluble OP-1 alone (ROS cells; peptide about 60 μM with 40 ng/ml soluble OP-1, FIG. 9A): about 20%
effect on basal alkaline phosphatase level (ROS cells; peptide alone, about 60 μM, Example 2, FIG. 9A): double
ability to displace 125I-labeled soluble OP-1 from ROS cell membranes [1]: cannot completely displace
effect on binding of 125I-labeled OP-1 to the receptor [1]: effectively competed

Molecule: F2-2c: SEQ ID No. 18; control cyclized peptide, 9 residues of F2-2 in reverse order (CIVNSSDDFYC; disulfide 1-11 (inferred); listed as Homo sapiens) [reference compound]
effect on basal cell responsiveness (alkaline phosphatase activity) (ROS cells; Example 3, peptide alone): no effect
effect on OP-1 induced cell responsiveness (agonist/antagonist behaviour) (ROS cells; Example 3): no effect
effect on binding of 125I-labeled OP-1 to the receptor [1]: inactive

Molecule: H-1: SEQ ID No. 11; covers the whole Heel region, cyclized near the knot region (CAFPLNSYMNATNHAIVQTLVHFINPETVPKC; disulfide 1-32 (inferred); listed as Homo sapiens)
effect on basal cell responsiveness (alkaline phosphatase activity) (ROS cells; Example 3, peptide alone): effective only at very high concentrations
effect on OP-1 induced cell responsiveness (agonist/antagonist behaviour) (ROS cells; Example 3): weak antagonist; also recorded: antagonists
peptide concentrations required to inhibit the OP-1 induced cell response (ROS cells; Example 3, with OP-1): 44 to 220 µM
effect on binding of 125I-labeled OP-1 to the receptor [1]: interfered

Molecule: H-N2: SEQ ID No. 12; 11 residues (plus Cys) in the loop on the N-terminal end of the Heel helix (CLNSYMNATNHAC; listed as Homo sapiens)
effect on basal cell responsiveness (alkaline phosphatase activity) (ROS cells; Example 3, peptide alone): not effective
effect on OP-1 induced cell responsiveness (agonist/antagonist behaviour) (ROS cells; Example 3): not effective
effect on alkaline phosphatase activity (ROS cells; either alone or in combination with soluble OP-1, FIG. 9C): little or no effect
ability to displace 125I-labeled soluble OP-1 from ROS cell membranes [1]: little or no ability to displace
effect on binding of 125I-labeled OP-1 to the receptor [1]: failed to inhibit

The next lines start with results.

IC50 (ROS cells; Example 3): 10 µM
Molecule: F1-2: SEQ ID No. 6; 15-residue finger 1 loop region peptide cyclized at the ends (CFRDLGWQDWIIAPC; cyclized; listed as Homo sapiens)
effect on basal cell responsiveness (alkaline phosphatase activity) (ROS cells; Example 3, peptide alone): weakly inhibiting
effect on OP-1 induced cell responsiveness (agonist/antagonist behaviour) (ROS cells; Example 3): relatively weak antagonist
effect on OP-1 induced cell responsiveness (agonist/antagonist behaviour) (ROS cells; Example 3, listed as Fi-2): antagonists
ability to displace 125I-labeled soluble OP-1 from ROS cell membranes [1]: little or no ability to displace
effect on binding of 125I-labeled OP-1 to the receptor [1]: relatively weak activity
peptide concentration required to inhibit binding of 125I-labeled OP-1 to the receptor ([1]; Example 3, FIG. 14): 179 µM
effect on binding of 125I-labeled OP-1 to the receptor ([1]; listed as Fi-2): interfered

IC50 (ROS cells; Example 3): 5 µM
Molecule: H-C2: SEQ ID No. 13; 7 residues (plus Cys) in the loop on the C-terminal end of the Heel helix (CCFINPETVCC; listed as Homo sapiens)
effect on basal cell responsiveness (alkaline phosphatase activity) (ROS cells; Example 3, peptide alone): inhibiting the basal
effect on OP-1 induced cell responsiveness (agonist/antagonist behaviour) (ROS cells; Example 3): antagonists
overall judgement of activity (lead peptides) (ROS cells; Example 3 summary, antagonistic (H-C2) and modulating (F2-3) activity): highly active
peptide concentration at which the activity of soluble OP-1 is antagonized (ROS cells; with 40 ng/ml soluble OP-1, FIG. 9D): greater than 5 μM
ability to displace 125I-labeled soluble OP-1 from ROS cell membranes [1]: little or no ability to displace
effect on binding of 125I-labeled OP-1 to the receptor [1]: interfered
effect on binding of 125I-labeled OP-1 to the receptor ([1]; peptide at 8 μM, FIG. 14): potentiated

percent bindability to excess receptor [2]: 30 to 37%
Ka [3]: 4.38e+09 M⁻¹
average OP-1 binding capacity (pmol/mg protein) [3]: 3.6
B1: OP-1 (osteogenic protein-1), mature human OP-1 (ligand)
chain: CKKHELYVSFRDLGWQDWIIAPEGYAAYYCEGECAFPLNSYMNATNHAIVQTLVHFINPETVPKPCCAPTQLNAISVLYFDDSSNVILKKYRNMVVRACGCH
modifications: radio-iodinated (^125I) when used as tracer; unlabeled when used as competitor or in the bioassay

IC50 (peptide concentration giving 50% inhibition of cellular responsiveness to OP-1), ROS cell alkaline phosphatase [4]: 20 µM
B2: Peptide F1-1 (peptide)
peptide: CELYVSFRDLGWQDWIIAPEGYAAYC
modifications: disulfide 1-26
